Measured values as given in ChEMBL document CHEMBL5370608, “Selective and Bioavailable HDAC6 2-(Difluoromethyl)-1,3,4-oxadiazole Substrate Inhibitors and Modeling of Their Bioactivation Mechanism” (J Med Chem, 2023).
The source made the active and inactive calls. The rule behind the calls is not given here.

Columns and labels:
[1] = Chemical stability of compound in HCL solution at pH 1 assessed as half life by UPLC analysis; type: physicochemical
[2] = Chemical stability of compound in sodium phosphate buffer at pH 7.4 assessed as half life by UPLC analysis; type: physicochemical
[3] = Chemical stability of compound in sodium carbonate buffer at pH 10 assessed as half life by UPLC analysis; type: physicochemical
[4] = Metabolic stability in human hepatocytes assessed as intrinsic clearance at 1 uM measured per 10^6 cells incubated at 2 to 60 mins by LC-MS/MS analysis; type: ADME, cell-based, Hepatocyte; conditions: time 2-60 min, read-out: CLH
[5] = Plasma protein binding in human assessed as unbound fraction; type: ADME, cell-free
[6] = target: T1, Protein deacetylase HDAC6 (Mus musculus, UniProt Q9Z2V5); assay: Inhibition of HDAC6 in mouse LA-4 cells assessed as deacetylation of acetylated alpha-tubulin level incubated for 24 hrs by Western blot analysis; type: cell-based
T1 sequence (Q9Z2V5 whole entry): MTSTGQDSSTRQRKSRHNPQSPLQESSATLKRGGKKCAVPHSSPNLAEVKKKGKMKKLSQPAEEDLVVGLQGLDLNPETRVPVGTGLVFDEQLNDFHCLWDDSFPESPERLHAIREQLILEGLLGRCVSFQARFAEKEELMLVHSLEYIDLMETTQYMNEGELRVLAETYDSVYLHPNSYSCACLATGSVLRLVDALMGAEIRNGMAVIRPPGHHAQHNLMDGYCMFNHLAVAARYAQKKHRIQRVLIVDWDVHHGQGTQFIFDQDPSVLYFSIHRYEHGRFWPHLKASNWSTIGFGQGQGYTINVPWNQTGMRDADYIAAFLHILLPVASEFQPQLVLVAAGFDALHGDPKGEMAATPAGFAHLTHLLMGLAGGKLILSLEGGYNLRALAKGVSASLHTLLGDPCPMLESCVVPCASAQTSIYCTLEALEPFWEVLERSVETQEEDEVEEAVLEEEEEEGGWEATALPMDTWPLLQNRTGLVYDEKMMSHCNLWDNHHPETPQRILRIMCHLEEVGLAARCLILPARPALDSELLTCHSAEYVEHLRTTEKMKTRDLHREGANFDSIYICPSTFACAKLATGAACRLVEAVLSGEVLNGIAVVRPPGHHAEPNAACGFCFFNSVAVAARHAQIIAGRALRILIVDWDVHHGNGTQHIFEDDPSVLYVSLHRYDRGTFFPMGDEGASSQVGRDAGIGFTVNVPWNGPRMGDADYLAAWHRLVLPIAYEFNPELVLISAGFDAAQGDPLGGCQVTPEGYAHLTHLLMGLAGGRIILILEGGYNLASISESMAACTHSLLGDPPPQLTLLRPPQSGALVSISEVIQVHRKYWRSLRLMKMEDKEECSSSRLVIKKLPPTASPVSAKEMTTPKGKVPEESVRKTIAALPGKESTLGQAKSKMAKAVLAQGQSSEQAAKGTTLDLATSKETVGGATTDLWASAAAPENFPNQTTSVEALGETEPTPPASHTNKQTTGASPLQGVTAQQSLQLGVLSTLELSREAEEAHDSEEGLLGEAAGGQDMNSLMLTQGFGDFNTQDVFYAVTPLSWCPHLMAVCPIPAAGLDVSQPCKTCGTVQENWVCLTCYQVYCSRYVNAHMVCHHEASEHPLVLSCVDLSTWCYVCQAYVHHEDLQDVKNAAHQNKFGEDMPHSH

[7] = Clearance in C57/BI mouse at 2 mg/kg, iv measured upto 24 hrs by LC-MS/MS analysis; type: ADME, organism-based; conditions: in vivo
[8] = Clearance in Wistar Han rat at 0.5 mg/kg, iv measured upto 24 hrs by LC-MS/MS analysis; type: ADME, organism-based; conditions: in vivo
[9] = Half life in C57/BI mouse at 2 mg/kg, iv measured upto 24 hrs by LC-MS/MS analysis; type: ADME, organism-based; conditions: in vivo
[10] = Half life in Wistar Han rat at 0.5 mg/kg, iv measured upto 24 hrs by LC-MS/MS analysis; type: ADME, organism-based; conditions: in vivo
[11] = Half life in Wistar Han rat at 10 mg/kg, po measured upto 24 hrs by LC-MS/MS analysis; type: ADME, organism-based; conditions: in vivo
[12] = Volume of distribution at steady state in C57/BI mouse at 10 mg/kg, po or 2 mg/kg, iv measured upto 24 hrs by LC-MS/MS analysis; type: ADME, organism-based; conditions: in vivo
[13] = Volume of distribution at steady state in Wistar Han rat at 1 mg/kg, po or 0.5 mg/kg, iv measured upto 24 hrs by LC-MS/MS analysis; type: ADME, organism-based; conditions: in vivo
[14] = target: 3',5'-cyclic-AMP phosphodiesterase 4D (Homo sapiens) (UniProt Q08499); assay: Inhibition of PDE4D (unknown origin) at 64 uM relative to control
3',5'-cyclic-AMP phosphodiesterase 4D (Homo sapiens), sequence (Q08499 whole entry): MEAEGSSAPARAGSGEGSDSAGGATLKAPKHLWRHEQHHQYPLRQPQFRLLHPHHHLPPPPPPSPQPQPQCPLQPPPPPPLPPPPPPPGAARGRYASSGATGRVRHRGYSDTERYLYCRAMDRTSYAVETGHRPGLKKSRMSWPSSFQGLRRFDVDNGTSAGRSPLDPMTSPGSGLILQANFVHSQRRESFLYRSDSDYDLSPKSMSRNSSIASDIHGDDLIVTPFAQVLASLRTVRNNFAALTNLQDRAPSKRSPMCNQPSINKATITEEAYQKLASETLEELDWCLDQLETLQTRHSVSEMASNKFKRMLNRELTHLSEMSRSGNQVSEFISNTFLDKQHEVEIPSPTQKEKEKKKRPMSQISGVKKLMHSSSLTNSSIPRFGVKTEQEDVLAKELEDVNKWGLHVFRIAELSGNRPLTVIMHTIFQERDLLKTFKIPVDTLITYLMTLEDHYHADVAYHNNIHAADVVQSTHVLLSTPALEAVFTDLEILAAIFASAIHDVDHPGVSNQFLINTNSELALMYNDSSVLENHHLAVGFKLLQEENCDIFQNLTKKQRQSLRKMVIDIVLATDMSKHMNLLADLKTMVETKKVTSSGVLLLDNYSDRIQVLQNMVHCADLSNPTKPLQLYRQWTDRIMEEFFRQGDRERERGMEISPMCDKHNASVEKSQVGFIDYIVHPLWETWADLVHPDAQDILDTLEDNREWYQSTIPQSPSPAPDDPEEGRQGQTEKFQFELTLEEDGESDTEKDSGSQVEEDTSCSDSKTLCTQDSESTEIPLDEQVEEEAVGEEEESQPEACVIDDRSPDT

[15] = Plasma protein binding in rat assessed as unbound fraction; type: ADME, cell-free
[16] = Plasma protein binding in mouse assessed as unbound fraction; type: ADME, cell-free
[17] = AUC (0 to infinity) in Wistar Han rat at 1 mg/kg, po measured upto 24 hrs by LC-MS/MS analysis; type: ADME, organism-based; parameters: time < 24 hrs, dose 1 mg/kg, route po; conditions: in vivo
[18] = Half life in C57/BI mouse at 1 mg/kg, po measured upto 24 hrs by LC-MS/MS analysis; type: ADME, organism-based; conditions: in vivo
[19] = Volume of distribution at steady state in C57/BI mouse at 1 mg/kg, po or 0.5 mg/kg, iv measured upto 24 hrs by LC-MS/MS analysis; type: ADME, organism-based; conditions: in vivo

## CS(=O)(=O)NCC(Nc1ncc(-c2nnc(C(F)F)o2)cn1)c1ccc(OC(F)(F)F)cc1 (stereo not drawn)
[1]
  half-life: 11.8 h
[2]
  half-life: 221 h
[3]
  half-life: 7.2 h

## O=C(NO)c1cnc(NC2(c3ccccc3)CCC(F)(F)CC2)nc1
[4]
  hepatocyte CLint at 1 µM: 5.1 µL/min/1e6 cells
[5]
  fraction unbound: 0.23
[6]
  IC50: 398 nM
[7]
  clearance: 140 mL/min/kg
[8]
  clearance: 180 mL/min/kg
[9]
  half-life: 0.2 h
[10]
  half-life: 0.3 h
[11]
  half-life: 2.1 h
[12]
  Vdss: 1.6 L/kg
[13]
  Vdss: 2.2 L/kg

## FC(F)c1nnc(-c2ccc(Cn3nnc(-c4ccccn4)n3)nc2)o1
[14]
  inhibition: Active
[4]
  hepatocyte CLint at 1 µM: < 1 µL/min/1e6 cells
[5]
  fraction unbound: 0.13
[15]
  fraction unbound: 0.38
[16]
  fraction unbound: 0.27
[6]
  IC50: 1000 nM
[8]
  clearance: 3.2 mL/min/kg
[17]
  AUC(0-inf): 15 µM·h
[10]
  half-life: 7.3 h
[18]
  half-life: 5.3 h
[13]
  Vdss: 1.8 L/kg
[19]
  Vdss: 0.9 L/kg
[1]
  half-life: 7.68 h
[2]
  half-life: 84 h
[3]
  half-life: < 13.7 h
